experiment: in vitro; conditions: human, hela cells, % viability

| SMILES | viability at 28.5 h, 10 µM |
| --- | --- |
| CCS(=O)(=O)N1C[C@H]2CC[C@](O)(c3ccc(C)cc3)[C@H]2C1 [CBK285296] | 107% |
| CCOC(=O)c1cccnc1-c1ccc(OC)c(OC)c1 [CBK149240] | 94.2% |
| CC(C)NC(=O)N1Cc2nc[nH]c2C[C@H]1c1nc(-c2ccc(OC(F)(F)F)cc2)no1 [CBK288960] | 85.9% |
| COc1ccc(C(C)C)cc1-c1ccnc2[nH]c(=O)ccc12 [CBK073735] | 102% |
| Fc1cccc(F)c1CN1CCN(CCc2ccccc2)CC1 [CBK126422] | 89.9% |
| CN1C(=O)COc2ccccc2CCCC[C@@H]2[C@H]1CCCN2C(=O)CCn1ccnc1 [CBK292150] | 96.6% |
| Cc1ccc(C(=O)O)cc1NC(=O)C1CCCCC1C(=O)O (stereo not drawn) [CBK263679] | 93.5% |
| Cc1cc(C[C@@H]2COC[C@H]2NCc2ccccc2C(F)(F)F)on1 [CBK285464] | 100% |
| Cc1ccc(C(C)C)cc1OCC(=O)N/N=C\c1cc([N+](=O)[O-])ccc1O [CBK261206] | 92.6% |
| COC(=O)COc1nccnc1-c1ccc(SC)cc1 [CBK106806] | 107% |
| COc1cc(CNC(=O)c2cncc(-c3ccc(C(=O)N4CCOCC4)cc3)c2)cc(OC)c1OC [CBK158632] | 114% |
| Cc1nnnn1-c1cc(NC(=O)N(C)C(C)C)ccc1F [CBK304708] | 93.2% |
| COc1ccc([C@@]23CC[C@@H](NC(=O)Nc4cccc(SC)c4)C[C@@H]2N(C)CC3)cc1OC [CBK036459T] | 91.1% |
| COCCN(Cc1nccs1)C(=O)C1CCc2nn(C)c(=O)n2C1 (stereo not drawn) [CBK306506] | 103% |
| CC(C)NC(=O)N[C@H]1CCN2C(=O)c3cc(-c4ccccc4F)ccc3NC(=O)[C@H]12 [CBK289335] | 84.2% |
| N#Cc1c(NC(=O)CN2CCN(Cc3ccccc3)CC2)sc2c1CCCC2 [CBK267969] | 99.6% |
| O=c1nc(O)c2ccccc2s1 [CBK027968] | 94.9% |
| COc1ccc(-c2noc(CNC(=O)Nc3ccccc3)n2)cc1OC [CBK269900] | 88.3% |
| CCCc1nc(-c2ccc3c(c2)CCCN3S(C)(=O)=O)cs1 [CBK306253] | 93% |
| O=C(O)C[C@H](CNC(=O)COc1ccc2ccc(=O)oc2c1)c1ccc(Cl)cc1 [CBK286702] | 113% |
| Cc1ccc(C(C)C)c(OCC(=O)Nc2cc(-c3nc4ccccc4[nH]3)ccc2C)c1 [CBK268724] | 80.7% |
| CC(=O)N1CCN(C(=O)C2C(C(=O)O)C2(C)C)CC1 (stereo not drawn) [CBK287021] | 102% |

| SMILES | viability at 28.5 h, 10 µM |
| --- | --- |
| CCC(=O)N1CCCCC(NS(=O)(=O)c2ccc(-n3cccn3)cc2)C1 (stereo not drawn) [CBK307398] | 82.5% |
| O=[N+]([O-])c1ccccc1S(=O)(=O)N1CCN(c2ccnc3cc(Cl)ccc23)CC1 [CBK267271] | 92.1% |
| O=C(O)CCC(=O)Nc1ccccc1C(=O)NC1CCCCC1 [CBK267674] | 105% |
| O=c1cc(CO)oc(CN2CCCCCC2)c1O [CBK288363] | 97.7% |
| CC1Oc2ccc(S(=O)(=O)Nc3ccc(CCC(=O)O)cc3)cc2NC1=O (stereo not drawn) [CBK299769] | 92.3% |
| O=C(Cc1ccc2c(c1)CCCO2)NCc1ccccc1-n1ccnc1 [CBK281463] | 86.6% |
| Cc1sc2nc(C3CC3)n(C3CCNCC3)c(=O)c2c1C [CBK284228] | 92.3% |
| O=C(Oc1cccc(-c2cnc3ccccc3n2)c1)c1ccc(S(=O)(=O)N2CCCCC2)cc1 [CBK267785] | 104% |
| O=S(=O)(Nc1cccc2cc[nH]c12)c1ccc(Br)cc1C(F)(F)F [CBK159519] | 88.5% |
| CSCC[C@@H]1CN2CCC[C@H]2CN1Cc1cnc(C)n1C [CBK285423] | 109% |
| N#CCCn1cc(C(=O)N2CCCCC2)c(-c2cccc(Cl)c2)n1 [CBK306209] | 80% |
| OC(Cn1nc(-c2ccccc2)cc1-c1ccccc1)Cn1c2ccc(Cl)cc2c2cc(Cl)ccc21 (stereo not drawn) [CBK261418] | 84.7% |
| O=C(Nc1ccc(C(=O)OCC(=O)c2cccc3ccccc23)cc1)c1ccccc1 [CBK265518] | 115% |
| CN(C)c1nc2n(c(=O)n1)CCS2 [CBK019025] | 92.3% |
| Cc1ccc(C(=O)Nc2ccccc2)cc1S(=O)(=O)N1CCN(C)CC1 [CBK270076] | 90.2% |
| CC(C)c1ccc(NC(=O)CSc2n[nH]c(=O)n2-c2ccccc2)cc1 [CBK299826] | 89.3% |
| Cc1ccc(C(=O)C(C)OC(=O)c2ccc(NC(=O)c3ccccc3)cc2)cc1 (stereo not drawn) [CBK264302] | 100% |
| CC[C@@H]1CCCCN1C(=O)c1ccc(Cl)c(C)c1 [CBK084565] | 91.6% |
| O=C1N=C(NC2CCCCCC2)SC1Cc1nc2ccccc2[nH]1 (stereo not drawn) [CBK066789] | 83.7% |
| COCCN1CC(CNC(=O)c2ccc(N3CCCC3)c(Cl)c2)CC1=O (stereo not drawn) [CBK307680] | 84% |
| COc1ccc(OC)c(NC(=O)CNC(=O)c2ccccc2F)c1 [CBK267846] | 91.5% |
| COc1ccc2nc(NC(=O)c3ccc4ncsc4c3)sc2c1 [CBK287364] | 94.8% |

| SMILES | viability at 28.5 h, 10 µM |
| --- | --- |
| COC(=O)c1oc(-c2ccc(OC)cc2)c(-c2ccc(OC)cc2)c1C(N)=O [CBK001957] | 98.7% |
| Cc1ccc(S(=O)(=O)N(CC(O)Cn2c3ccc(Cl)cc3c3cc(Cl)ccc32)c2ccccc2)cc1 (stereo not drawn) [CBK263353] | 92.2% |
| Cc1ccc(S(=O)(=O)c2cccc(S(N)(=O)=O)c2)cc1S(N)(=O)=O [CBK264535] | 91.7% |
| Cn1c(Sc2ccc(C#N)cn2)nnc1-c1ccco1 [CBK297756] | 111% |
| O=C(c1ccccc1Cl)N1N=C(c2cccnc2)CC1c1ccccc1O (stereo not drawn) [CBK269182] | 102% |
| Cc1cc(=O)oc2cc(OC(=O)C(Cc3ccccc3)N3C(=O)c4ccccc4C3=O)ccc12 (stereo not drawn) [CBK033943] | 91.1% |
| O=C(NC(=S)Nc1ccccc1C(=O)O)c1ccc(Cl)cc1 [CBK265044] | 96.2% |
| Cc1nonc1NC(=O)CN1CCCC1 [CBK261840] | 109% |
| Cc1noc(C)c1NC(=O)c1ccncc1 [CBK200389] | 89.9% |
| Cc1ccc(-c2cc3cccnc3n2CCC(=O)NC2CC2)cn1 [CBK284964] | 97.4% |
| O=C(N/N=C\c1cccc(O)c1)C(=O)N/N=C/c1cccc(O)c1 [CBK261962] | 87.6% |
| CCCC1CCN(Cc2ccn(Cc3ccc(S(C)(=O)=O)cc3)c2)CC1 [CBK144937] | 94.4% |
| CCOC(=O)N1CCC(NC(=O)N(Cc2cccnc2)Cc2ccc3c(c2)OCO3)CC1 [CBK158897] | 95.4% |
| Cc1ccc(C(=O)Nc2cccc3cccnc23)cc1Br [CBK265189] | 102% |
| COc1cc(C)c(Nc2cc(-c3ccc4c(c3)OCO4)ncn2)cc1OC [CBK037711] | 98.9% |
| CC(C)(C)OC(=O)N1CCCC(C(=O)NCc2ccco2)C1 (stereo not drawn) [CBK305102] | 99.1% |
| Cc1ccccc1CSc1nc2ccc([N+](=O)[O-])cc2[nH]1 [CBK267879] | 96.2% |
| COc1ccc(-c2nnc(SCC(=O)O)n2-c2cccc(C(F)(F)F)c2)cc1OC [CBK268347] | 88.7% |
| Cc1ccc(-n2cc(CN(C)CC3(C)COC3)cn2)cc1 [CBK281720] | 93% |
| CCOC(=O)C1CCN(S(=O)(=O)c2ccc(NC(C)=O)c(Cl)c2)CC1 [CBK043748] | 93.5% |
| O=[N+]([O-])c1ccc(CN2CCN(c3nccnc3Oc3ccc(F)cc3)CC2)cc1 [CBK083015T] | 92.2% |
| O=C(NCCc1c[nH]c2ccccc12)c1cc(Br)cnc1N1CCOCC1 [CBK076224] | 91.7% |

| SMILES | viability at 28.5 h, 10 µM |
| --- | --- |
| O=C(O)CSc1nnc2ccc(C(F)(F)F)cn12 [CBK018930] | 81.3% |
| O=C(CCn1c(=O)oc2ccccc21)Nc1ccc(S(=O)(=O)N2CCCCC2)cc1 [CBK268365] | 82% |
| N#CC1C(=S)NC2=C(CCCC2)C12CCCCC2 (stereo not drawn) [CBK288493] | 103% |
| NC(=O)c1c(NC(=O)COc2ccc(Cl)cc2)sc2c1CCC2 [CBK262163] | 91% |
| CCCCC1CCC(c2noc(-c3ccc(F)cc3)n2)CC1 (stereo not drawn) [CBK027363] | 90.3% |
| Cc1cc(-c2nnc(SCc3ccc(Cl)cc3)n2C)no1 [CBK067720] | 112% |
| Cc1nn(C)c(C)c1CCC(=O)N1CCc2ncc(Cl)cc2C1 [CBK284851] | 114% |
| Cc1cc(NS(=O)(=O)c2cccc3nonc23)n(C)n1 [CBK067247] | 93.7% |
| CC1CCCN(CC(O)c2ccc3c(c2)CCCN3C(=O)C2CC2)C1 (stereo not drawn) [CBK282136] | 100% |
| OCc1ccccc1-c1cnc(N2CCOCC2)c2nccn12 [CBK091265] | 110% |
| CC(=O)N1C[C@H](O)C[C@H]1C(=O)N1CC[C@H]2NC(=O)[C@H](Cc3ccccc3)NC(=O)C3(C/C=C/C[C@H]2C1)CCOCC3 [CBK292204] | 88.7% |
| COc1ccc2c(c1)c(C(C(=O)O)N1CCN(c3ccccn3)CC1)cn2CC(=O)O (stereo not drawn) [CBK286637] | 98% |
| O=c1c(-c2nnc(SCc3cccc(C(F)(F)F)c3)o2)cccn1Cc1ccccc1 [CBK067712] | 108% |
| COc1cccc(C(NC(=O)C2COc3ccc(OC)cc3C2)c2ccccc2)c1 (stereo not drawn) [CBK285713] | 97.7% |
| N/C(=N\OC(=O)CCCc1ccccc1)c1ccc(Cl)cc1 [CBK264454] | 107% |
| FC1(F)Oc2ccc(Nc3cncc(-c4cccs4)n3)cc2OC1(F)F [CBK065727] | 110% |
| O=C1CCCC[C@@H]2[C@@H](N1)[C@H](c1ccccc1)CN2Cc1ccnc2ccccc12 [CBK286280] | 102% |
| CC(C)Nc1cccnc1N1CCN(C(=O)c2ccncc2)CC1 [CBK016714] | 79% |
| O=C(CCN1C(=O)[C@@H]2Cc3ccccc3CN2C1=O)N[C@H](C(=O)O)c1ccccc1 [CBK286751] | 88.7% |
| CC(=O)N1CCC(O)(Cn2c(C3CC3)cc3cccnc32)CC1 [CBK283082] | 111% |
| Clc1ccc(CN2CCC(Oc3cncc(OCc4cccnc4)n3)C2)cc1 (stereo not drawn) [CBK084451] | 104% |
